Source: patent US7132296B2, “Method for assaying the antioxidant capacity of a sample” (Medical Products Manufacturing, LLC, priority 2002, dated 2006)

Experiments:
[1] = ORAC assay with B-phycoerythrin probe (ORACB-PE / ORACPE); format: biochemical; conditions: calculated based on equation 2, n > 3
Method: In accordance with the published ORAC assay, a sample such as fresh fruit, blood senun, or an additive or supplement in powder form is prepared for extraction and extracted first in water and then in acetone. A protein based fluorescent probe, namely B-phycoerythrin (B-PE) is then added to the extract. A standard, having high antioxidant capacity, such as diluted grape seed extract (GSE) or TROLOX® (6-hydroxy-2,5,7,8-tetramethylchroman-2-carboxylic acid), a water soluble analog of vitamin E, is added to the extract to provide a comparison of the antioxidant capacity of the sample to the standard. The extract, the standard, and a blank sample are then loaded into the COBAS FARA II device and an initial fluorescence emission of the probe is taken. Next, AAPH, (2,2′-azobis (2-amidino-propane) dihydrochloride), which generates free radicals upon heating, is added to the extract of the sample and the standard and fluorescence emission readings are taken until a zero value is reached for the extract of the sample. To measure the protective effect of an antioxidant using the ORAC assay, the area under the fluorescence decay curve (AUC) of the sample is calculated and compared to that of the blank in which no antioxidant is present.
After the fluorescent readings are taken, the ORAC values are calculated by using a regression equation between standard concentration 62, FIG. 7, and the net area under the B-PE decay curve of sample 60. ORAC values are typically expressed in μmole Trolox equivalent per liter or per gram.
(§1) In accordance with the subject invention the area under the curve (AUC) for the sample, standard, and blank are calculated as: AUC=0.5+f1/f0+f2/f0+f3/f0+f4/f0+ . . . +fi/f0 (1) Where f0=initial fluorescence reading at 0 minute, and fi is the fluorescence reading at time i. Typically, equation (1) is solved and the data analyzed in an electronic spreadsheet such as Microsoft Excel or other similar products or computer programs. The AUC is calculated for sample 60, standard 62 and blank 64. The net AUC is obtained by subtracting the AUC of blank 64 from sample 60. The relative ORAC value for sample 60, expressed in Trolox equivalents is calculated as: Relative ORAC value=[(AUCsample−AUCBlank)/(AUCTrolox−AUCBlank)]×(molarity of Trolox/molarity of sample) (2)

[2] = ORAC assay with fluorescein probe (ORACFL), peroxyl radical scavenging assay; format: biochemical; conditions: for Ratio (ORACFL/ORACB-PE): chemicals, Table 1; for ORACFL: fluorescein probe, calculated based on equation 2, n > 3
Method: as §1
Flavonoid compounds and β-phycoerythrin were purchased from Sigma (St. Louis, Mo.). Trolox, ascorbic acid and disodium fluorescein were obtained from Aldrich (Milwaukee, Wis.). 2,2′-azobis (2-amidino-propane) dihydrochloride (AAPH) was purchased from Wako Chemicals USA (Richmond, Va.). Various analyzed samples were also obtained. ORAC analyses were performed on a COBAS FARA II analyzer (Roche Diagnostic System Inc., Branchburg, N.J.; Excitation wavelength=493 nm and emission filter=515 nm).
Ascorbic acid and flavonoids were directly dissolved in acetone/water mixture (50:50, v/v) and diluted with pH 7.4 phosphate buffer for analysis. The solid samples were initially ground in a mechanical mill to produce a fine power; then 0.5 grams were accurately weighed and 20 mL of acetone/water (50:50, v/v) extraction solvent was added. The mixture was shaken at 400 RPM at room temperature on an orbital shaker for one hour. The extracts were centrifuged at 14000 rpm for 15 min, and the supernatant was ready for analysis after appropriate dilution with buffer solution. For liquid samples, a 20 mL aliquot of sample was centrifuged for 15 min and the supernatant was ready for analysis after appropriate dilution. Blood plasma or serum was diluted 100 to 200 fold with pH 7.4 phosphate buffer before analysis. To measure the ORAC in non-protein fraction, protein was removed using 0.5 N perchloric acid (1:1; v:v; plasma:acid), the samples were then centrifuged at 140,000×g for 10 min at 4° C., and the supernatants were removed as the serum nonprotein fractions and appropriately diluted with pH 7.4 phosphate buffer before the analysis.
Peroxyl radical scavenging assay. The COBAS FARA II was programmed to use a two-reagent system (Reaction Mode 3, P-I-SRI-A). The reaction mode pipetted and transferred the sample (20 μL), phosphate buffer (5 μL, 0.75 mM, pH 7.4), and main reagent (365 μL FL, 4.8×10^−8 M) into the main reagent wells of their respective cuvette rotor positions. With spinning of the rotor, the reagents are mixed and incubated for 30 s before recording the initial fluorescence (f0). After the rotor stops spinning, a start reagent (SRI), 8 μL of APPH (0.64M) plus 2 μL of the phosphate buffer is pipetted into the appropriate start reagent well in the curvette rotor. Next, the analyzer starts spinning, mixing of the sample/FL with AAPH reagent and the oxidative reaction starts. […] Between transfers, both sample and reagent transfer pipettes are washed with clean solution to eliminate sample cross contamination. Fluorescence readings are taken at 0.5 s and then every minute thereafter (f1, f2, f3 . . . ) for a duration of 30 min. If the fluorescence of the final reading has not declined by >95% from the first reading, the dilution of sample is adjusted accordingly and the sample is reanalyzed. To determine the maximum voltage for the photomultiplier tube, the AAPH reagent is omitted and is replaced with buffer, and the analysis is run for 10 min. FL and AAPH were prepared in a 0.75 mM phosphate buffer. FL working solution was routinely preincubated in a waterbath at 37° C. for 15 min before loading into the COBAS reagent rack.

Row | SMILES | ORACB-PE [1] | Ratio (ORACFL/ORACB-PE) [2] | ORACFL [2]
1 | O=C(O)/C=C/c1ccc(O)c(O)c1 [Caffeic Acid] | 1.40 ± 0.09 relative Trolox equivalent | 3.12 | 4.37 ± 0.24 relative Trolox equivalent
2 | O=c1c(-c2ccc(O)cc2)coc2cc(O)cc(O)c12 [Genistein] | 2.3 ± 0.16 relative Trolox equivalent | 2.57 | 5.93 ± 0.45 relative Trolox equivalent
3 | N[C@@H](CCC(=O)N[C@@H](CS)C(=O)NCC(=O)O)C(=O)O [Glutathione] | 0.32 ± 0.01 relative Trolox equivalent | 1.94 | 0.62 ± 0.02 relative Trolox equivalent
4 | O=c1c(O)c(-c2ccc(O)c(O)c2)oc2cc(O)cc(O)c12 [Quercetin] | 2.07 ± 0.05 relative Trolox equivalent | 2.11 | 4.38 ± 0.22 relative Trolox equivalent
5 | C[C@@H]1O[C@@H](Oc2c(-c3ccc(O)c(O)c3)oc3cc(O)cc(O)c3c2=O)[C@H](O)[C@H](O)[C@H]1O [Quercetrin] | 2.70 ± 0.18 relative Trolox equivalent | 2.15 | 5.87 ± 0.49 relative Trolox equivalent
6 | O=C1O[C@H]([C@@H](O)CO)C(O)=C1O [Vitamin C] | 0.43 ± 0.03 relative Trolox equivalent | 2.21 | 0.95 ± 0.02 relative Trolox equivalent
